Data reported in ChEMBL document CHEMBL1134245, “Two novel and potent 3-[(o-methoxyphenyl)piperazinylethyl]-5-phenylthien” (Bioorg Med Chem Lett, 2001).

What was measured:
[1] = biological target: T1, Alpha-1D adrenergic receptor (Rattus norvegicus, UniProt P23944); test: In vitro functional activity at Alpha-1D adrenergic receptor in rat aorta; format: tissue-based; details: read-out: pA2 (converted)
T1 sequence (P23944 whole entry): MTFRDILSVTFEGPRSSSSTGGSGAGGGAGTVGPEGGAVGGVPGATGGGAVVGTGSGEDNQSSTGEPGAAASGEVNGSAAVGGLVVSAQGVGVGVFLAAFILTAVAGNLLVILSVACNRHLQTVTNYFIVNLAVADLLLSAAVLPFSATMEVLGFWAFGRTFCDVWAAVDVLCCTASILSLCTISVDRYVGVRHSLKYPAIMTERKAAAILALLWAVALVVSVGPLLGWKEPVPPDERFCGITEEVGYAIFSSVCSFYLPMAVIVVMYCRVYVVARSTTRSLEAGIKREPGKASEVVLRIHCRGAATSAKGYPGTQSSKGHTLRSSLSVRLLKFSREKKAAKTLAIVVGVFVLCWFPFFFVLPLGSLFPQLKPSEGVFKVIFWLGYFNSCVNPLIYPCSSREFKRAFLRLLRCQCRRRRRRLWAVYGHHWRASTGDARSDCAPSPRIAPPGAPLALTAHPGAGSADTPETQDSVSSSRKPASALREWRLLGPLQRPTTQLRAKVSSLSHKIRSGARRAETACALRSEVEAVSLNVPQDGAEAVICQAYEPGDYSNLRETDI

[2] = Ancillary Binding affinity towards rat 5-hydroxytryptamine 2 receptor
[3] = biological target: T2, Alpha-2A adrenergic receptor (Homo sapiens, UniProt P08913); test: Ancillary Binding affinity towards cloned human Alpha-2A adrenergic receptor
T2 sequence (P08913 whole entry): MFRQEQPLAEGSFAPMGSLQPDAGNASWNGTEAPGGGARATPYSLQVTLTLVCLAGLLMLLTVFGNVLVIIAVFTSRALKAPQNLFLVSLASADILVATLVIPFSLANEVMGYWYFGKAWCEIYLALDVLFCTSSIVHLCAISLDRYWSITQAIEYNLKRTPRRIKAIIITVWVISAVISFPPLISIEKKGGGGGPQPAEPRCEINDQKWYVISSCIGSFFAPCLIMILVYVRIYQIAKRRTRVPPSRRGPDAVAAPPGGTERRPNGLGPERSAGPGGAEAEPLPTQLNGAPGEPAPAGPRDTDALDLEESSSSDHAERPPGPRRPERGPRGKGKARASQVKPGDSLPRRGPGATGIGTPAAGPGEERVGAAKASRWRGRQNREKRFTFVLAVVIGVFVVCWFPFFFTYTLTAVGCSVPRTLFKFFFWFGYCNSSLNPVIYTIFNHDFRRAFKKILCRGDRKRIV

[4] = biological target: T3, Alpha-1A adrenergic receptor (Homo sapiens, UniProt P35348); test: Binding affinity for human Alpha-1A adrenergic receptor
T3 sequence (P35348 whole entry): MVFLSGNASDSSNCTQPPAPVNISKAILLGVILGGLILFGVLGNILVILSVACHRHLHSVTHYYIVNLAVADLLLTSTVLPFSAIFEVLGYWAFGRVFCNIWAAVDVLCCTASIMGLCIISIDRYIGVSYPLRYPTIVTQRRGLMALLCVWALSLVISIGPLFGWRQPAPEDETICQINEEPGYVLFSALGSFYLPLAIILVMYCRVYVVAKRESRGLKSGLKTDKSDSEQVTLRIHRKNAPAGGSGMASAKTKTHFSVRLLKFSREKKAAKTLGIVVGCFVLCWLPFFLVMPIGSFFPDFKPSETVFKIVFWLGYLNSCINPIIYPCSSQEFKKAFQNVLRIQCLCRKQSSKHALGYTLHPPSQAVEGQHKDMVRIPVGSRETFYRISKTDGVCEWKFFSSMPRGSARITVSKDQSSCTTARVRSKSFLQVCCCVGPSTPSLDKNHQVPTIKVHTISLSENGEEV

[5] = biological target: T4, Alpha-1A adrenergic receptor (Bos taurus, UniProt P18130); test: Binding affinity towards bovine Alpha-1A adrenergic receptor
T4 sequence (P18130 whole entry): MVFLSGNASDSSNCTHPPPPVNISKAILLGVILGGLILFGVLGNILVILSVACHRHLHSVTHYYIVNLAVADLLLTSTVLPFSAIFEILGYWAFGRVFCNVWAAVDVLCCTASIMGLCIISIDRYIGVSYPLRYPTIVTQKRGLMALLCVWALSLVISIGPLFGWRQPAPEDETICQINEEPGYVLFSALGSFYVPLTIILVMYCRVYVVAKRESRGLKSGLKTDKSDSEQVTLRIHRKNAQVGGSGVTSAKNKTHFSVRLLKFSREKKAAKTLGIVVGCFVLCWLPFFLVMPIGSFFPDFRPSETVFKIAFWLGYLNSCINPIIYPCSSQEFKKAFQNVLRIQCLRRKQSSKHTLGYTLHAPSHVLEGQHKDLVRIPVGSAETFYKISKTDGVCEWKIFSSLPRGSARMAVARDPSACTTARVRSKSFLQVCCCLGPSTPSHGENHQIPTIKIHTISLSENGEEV

[6] = biological target: T5, Alpha-2B adrenergic receptor (Rattus norvegicus, UniProt P19328); test: Ancillary Binding affinity towards rat alpha-2B receptor
T5 sequence (P19328 whole entry): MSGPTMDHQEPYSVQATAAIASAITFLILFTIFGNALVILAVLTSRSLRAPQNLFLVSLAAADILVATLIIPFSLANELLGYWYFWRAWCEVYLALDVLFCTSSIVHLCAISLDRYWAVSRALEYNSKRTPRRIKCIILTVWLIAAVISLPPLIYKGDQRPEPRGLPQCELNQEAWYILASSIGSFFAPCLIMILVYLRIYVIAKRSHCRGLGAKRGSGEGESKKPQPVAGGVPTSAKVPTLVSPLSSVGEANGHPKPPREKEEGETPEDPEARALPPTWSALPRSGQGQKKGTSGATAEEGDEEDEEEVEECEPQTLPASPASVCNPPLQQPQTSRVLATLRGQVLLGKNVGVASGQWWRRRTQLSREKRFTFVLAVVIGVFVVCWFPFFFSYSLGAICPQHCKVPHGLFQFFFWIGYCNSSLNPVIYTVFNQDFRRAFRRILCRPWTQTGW

[7] = biological target: T6, Alpha-2C adrenergic receptor (Homo sapiens, UniProt P18825); test: Ancillary Binding affinity to cloned human Alpha-2C adrenergic receptor
T6 sequence (P18825 whole entry): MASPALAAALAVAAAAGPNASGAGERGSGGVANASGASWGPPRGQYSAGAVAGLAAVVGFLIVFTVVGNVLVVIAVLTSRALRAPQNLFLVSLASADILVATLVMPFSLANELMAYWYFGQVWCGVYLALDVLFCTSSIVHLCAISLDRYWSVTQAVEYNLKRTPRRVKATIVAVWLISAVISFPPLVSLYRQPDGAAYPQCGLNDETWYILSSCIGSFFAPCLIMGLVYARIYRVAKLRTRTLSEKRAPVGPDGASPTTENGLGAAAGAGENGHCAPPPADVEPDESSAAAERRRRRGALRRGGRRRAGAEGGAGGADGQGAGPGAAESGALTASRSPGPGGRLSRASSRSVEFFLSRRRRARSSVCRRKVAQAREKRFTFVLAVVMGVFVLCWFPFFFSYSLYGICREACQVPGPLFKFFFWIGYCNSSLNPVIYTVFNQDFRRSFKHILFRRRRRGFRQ

[8] = biological target: T1, Alpha-1D adrenergic receptor; test: In vitro functional activity at Alpha-1D receptor in rat aorta; format: tissue-based; details: read-out: pA2 (converted)

| SMILES | Kb [1] [nM] | Ki [2] [nM] | Ki [3] [nM] | Ki [4] [nM] | Ki [5] [nM] | Ki [6] [nM] | Ki [7] [nM] | Kb [8] [nM] |
| --- | --- | --- | --- | --- | --- | --- | --- | --- |
| COc1ccccc1N1CCN(CCn2c(=O)[nH]c3scc(-c4ccccc4)c3c2=O)CC1 [A-119637] | 0.0251 | 137 | 77.8 | 2.63 | 0.274 | 71 | 74.7 |  |
| COc1ccccc1N1CCN(CCn2c(=O)[nH]c3scc(-c4cccc(C)c4)c3c2=O)CC1 [A-123189] |  | 2190 | 82.5 | 4.17 | 0.348 | 66.6 | 82 | 0.02 |
